Peptide text beside a SMILES is read from it.
Tests used:
[1] = system: HLA-A2+T2 target cells pulsed with peptide; assay: In vitro immunization of normal HLA-A2+ donor PBMC with Y-modified hTRT peptides; type: cell-based, human
Text: PBMC from three normal HLA-A2+ individuals were immunized with the Y-modified peptides. The results are summarized as follows (Table VII).

[2] = system: hTRT+/HLA-A2+ melanoma cell line 624; assay: Normal donor CTL against p572(Y), lysis of melanoma 624; type: cell-based, human; conditions: normal blood donor PBMC immunized in vitro
Text: FIG. 6. […] The results are expressed as percent lysis and show by comparison lysis of 624 melanoma cells, and HLA-A2+T2 target cells pulsed with the p572(Y) and p572 wild type peptides, respectively. Nonspecific lysis of T2 cells is shown as a control.
CTL generated against p572 were also able to lyze the hTRT+/HLA-A2+ melanoma cell line 624. The antigen-recognition activity of T cells is intimately linked with recognition of MHC (HLA in humans) molecules.

HLA-A2.1 molecule = biological target: T1, HLA-A2.1 molecule (Homo sapiens, UniProt P04439, D140Y/D185E/D98H/E176V/E277Q/G131W/G231S/I119V/I121R/I166T/I218V/L300P/L318F/N151K/N90K/P208A/P217A/Q86G/Q94H/R138H/R169H/T345S); assay: HLA-A2.1 binding/stabilization assay on TAP- T2 cells; conditions: time required for a 50% reduction in mean fluorescence intensity
T1 construct: endogenous in cells; host or cells: human T2 cells (TAP-, HLA-A2.1+)
Protocol: The relative avidity was measured as previously described (25). Briefly, T2 cells were incubated overnight at 37° C. in RPMI supplemented with human β2-microglobulin (100 ng/ml) (Sigma, St. Louis, Mo.) in the absence (negative control) or presence of the test peptide or the reference peptide 4761[…]484 (SEQ ID NO:7) of HIV-1 reverse transcriptase at various final peptide concentrations (0.1-100 μM). Cells were incubated with Brefeldin A (0.5 μg/ml) for one hour and subsequently stained with a saturating concentration of monoclonal antibody BB7.2 for 30 minutes at +4° C. followed by washing and a second incubation with a goat antibody to mouse Ig (Fab′)2 conjugated to FITC (Caltag, South San Francisco). Cells were then washed, fixed with 1% paraformaldehyde and analyzed in a FACs Calibur cytofluorimeter (Becton & Dickinson, San Jose, Calif.). The mean fluorescence intensity of each concentration minus that of cells without peptide was used as an estimate of peptide binding. […] Dissociation of the test peptide from the HLA-A2.1 molecule reflects the half-life of fluorescence intensity of the peptide/MHC complex over time. The half-life of the complex (DC50) refers to the time (hours) required for a 50% reduction of the TO mean fluorescence intensity (25). Synthetic peptides 571[…]579 (SEQ ID NO:5) of carcinoembryonic antigen (CEA) and 476[…]486 (SEQ ID NO:6) of melanoma antigen gp100 were used as internal controls to account for inter-tests variability and for consistency with previously reported RA and DC50 measures (25).
Since the immunogenicity of MHC Class I-restricted peptides reflects to some degree their binding and stabilizing capacity for MHC Class I molecules (31-33) Applicant sought direct proof of the strength of interaction between the two hTRT peptides and the HLA-A2.1 molecule in a conventional binding/stabilization assay that uses the antigen-transporting deficient (TAP-) HLA-A2.1+ human T2 cells. […] The stability of each peptide bound to HLA-A2.1 was measured as the half-life of the complex

HLA-A2+ CD34+ cells = conditions: reference 24; cited from earlier work
[3] = biological target: T2, HLA-A2.1 molecule on TAP-deficient human T2 cells (human); assay: T2 cell HLA-A2.1 binding/stabilization assay, BB7.2 flow cytometry; ratio of peptide concentration giving 20% of maximal binding, against reference peptide [..] (SEQ ID NO:7) of HIV-1 reverse transcriptase; lower is stronger
T2 construct: MHC class I molecule on the surface of T2 cells; also called MHC Class I
Protocol: Briefly, T2 cells were incubated overnight at 37° C. in RPMI supplemented with human β2-microglobulin (100 ng/ml) (Sigma, St. Louis, Mo.) in the absence (negative control) or presence of the test peptide or the reference peptide 476_1[…]$484$ (SEQ ID NO:7) of HIV-1 reverse transcriptase at various final peptide concentrations (0.1-100 µM). Cells were incubated with Brefeldin A (0.5 µg/ml) for one hour and subsequently stained with a saturating concentration of monoclonal antibody BB7.2 for 30 minutes at +4° C. followed by washing and a second incubation with a goat antibody to mouse Ig (Fab')2 conjugated to FITC (Caltag, South San Francisco). Cells were then washed, fixed with 1% paraformaldehyde and analyzed in a FACs Calibur cytofluorimeter (Becton & Dickinson, San Jose, Calif.). The mean fluorescence intensity of each concentration minus that of cells without peptide was used as an estimate of peptide binding. […] Dissociation of the test peptide from the HLA-A2.1 molecule reflects the half-life of fluorescence intensity of the peptide/MHC complex over time. The half-life of the complex (DC50) refers to the time (hours) required for a 50% reduction of the TO mean fluorescence intensity (25). Synthetic peptides $571$[…]$579$ (SEQ ID NO:5) of carcinoembryonic antigen (CEA) and $476$[…]$486$ (SEQ ID NO:6) of melanoma antigen gp100 were used as internal controls to account for intertests variability and for consistency with previously reported RA and DC50 measures (25).
Since the immunogenicity of MHC Class I-restricted peptides reflects to some degree their binding and stabilizing capacity for MHC Class I molecules (31-33) Applicant sought direct proof of the strength of interaction between the two hTRT peptides and the HLA-A2.1 molecule in a conventional binding/stabilization assay that uses the antigen-transporting deficient (TAP-) HLA-A2.1+ human T2 cells.

## YELLRSFFYV (listed as Homo sapiens) [p555(Y), Y-modified hTRT peptide p555]
[1]; donor 218
  CTL against target cells pulsed with p555(Y): 4%
[1]; donor 219
  CTL against target cells pulsed with p555(Y): 8%
[1]; donor 222
  CTL against target cells pulsed with p555(Y): 1%

## YLARCALFV (listed as Homo sapiens) [p152(Y), Y-modified hTRT peptide p152]
[1]; donor 218
  CTL against target cells pulsed with p152(Y): 7%
[1]; donor 219
  CTL against target cells pulsed with p152(Y): 2%
[1]; donor 222
  CTL against target cells pulsed with p152(Y): 1%

## YLFFYRKSV (listed as Homo sapiens) [p572(Y), Y-modified hTRT peptide p572]
[1]; donor 218
  CTL against target cells pulsed with p572(Y): 48-50%
  CTL against target cells pulsed with p572 wild type: 26-46%
[1]; donor 219
  CTL against target cells pulsed with p572(Y): 4%
[1]; donor 222
  CTL against target cells pulsed with p572(Y): 27%
  CTL against target cells pulsed with p572 wild type: 5%
[2]
  lysis of melanoma cell line 624 in words: kill melanoma cells 624

## CC[C@H](C)[C@H](N)C(=O)N[C@@H](CC(C)C)C(=O)N[C@@H](C)C(=O)N[C@@H](CCCCN)C(=O)N[C@@H](Cc1ccccc1)C(=O)N[C@@H](CC(C)C)C(=O)N[C@@H](Cc1c[nH]cn1)C(=O)N[C@@H](Cc1c[nH]c2ccccc12)C(=O)N[C@@H](CC(C)C)C(=O)O [p540] (H-ILAKFLHWL-OH)
HLA-A2.1 molecule
  DC50 (half-life of peptide/HLA-A2.1 complex): 4 to 6 h
HLA-A2+ CD34+ cells
  lysis of HLA-A2+ CD34+ cells by CTL raised in normal individuals: did not lyse

## CC(C)C[C@H](NC(=O)[C@H](Cc1ccccc1)NC(=O)[C@H](CC(=O)O)NC(=O)[C@H](CC(=O)O)NC(=O)[C@@H](NC(=O)[C@H](CC(C)C)NC(=O)[C@@H](N)CCCNC(=N)N)C(C)C)C(=O)N[C@@H](CC(C)C)C(=O)N[C@H](C(=O)O)C(C)C [p865] (H-RLVDDFLLV-OH)
HLA-A2.1 molecule
  DC50 (half-life of peptide/HLA-A2.1 complex): 2 to 4 h

## VLYRYGSFSV (listed as Homo sapiens) [gp100 p476, peptide of human melanoma antigen gp100, internal control]
HLA-A2.1 molecule
  DC50 (half-life of peptide/HLA-A2.1 complex): 4 to 6 h

## RLFFYRKSV [p572 wild type]
[2]
  lysis of melanoma cell line 624 in words: able to lyze

B1: hTRT p540 synthetic peptide (residues 540-548 of human telomerase reverse transcriptase) (peptide)
peptide: ILAKFLHWL
notes: Synthetic 9mer, bought from the Biopolymer Synthesis Center (CalTech)
[3]
  Relative Avidity (RA): 2.9

B2: hTRT p865 synthetic peptide (residues 865-873 of human telomerase reverse transcriptase) (peptide)
peptide: RLVDDFLLV
notes: as for B1
[3]
  Relative Avidity (RA): 2.5

## VLYRYGSFSV (bought from Neosystem) [gp100 p476 synthetic peptide of human melanoma antigen gp100]
[3]
  Relative Avidity (RA): 9

Reference: patent publication US7388071B2, “Composition and method for inducing and enhancing a telomerase reverse transcriptase-reactive cytotoxic T lymphocyte response” (The Regents of the University of California, priority 2000, dated 2008)
